In patent US9645128B2, “Substituted imidazo[1,2-A]pyrazines for measuring a transcription activity” (JNC CORPORATION, priority 2009, dated 2017):

How the values were obtained:
[1] = target: T1, recombinant apoaequorin (Aequorea victoria, UniProt P07164); test: Luminescence patterns and half decay time of semi-synthetic aequorins; format: biochemical; set-up: purchased Chisso Corporation; settings: for Half decay time sec.: semi-synthetic aequorin, time to reach half of the maximum luminescence intensity
T1 sequence (P07164 other isoform, or with tags, fused parts or gaps with the stated changes): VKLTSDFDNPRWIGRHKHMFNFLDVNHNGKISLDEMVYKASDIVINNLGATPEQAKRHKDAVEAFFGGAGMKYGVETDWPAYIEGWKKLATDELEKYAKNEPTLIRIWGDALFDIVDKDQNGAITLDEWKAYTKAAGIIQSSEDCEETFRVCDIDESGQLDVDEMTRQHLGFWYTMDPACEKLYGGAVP
Description: The dilution was dispensed into a 96-well microplate (Nunc #236108) in 5 μl/well. […] The luminescence patterns for 60 seconds were measured to determine the half decay time of luminescence (time period to reach the half of the maximum luminescence intensity).

[2] = target: T1, recombinant apoaequorin; test: Emission spectra of semi-synthetic aequorins by addition of calcium ions; settings: for Emission spectra of semi-synthetic aequorins compared with known analogs (FIG. 3): compared to h-CTZ and i-CTZ; for Maximum emission wavelength λmax (nm): semi-synthetic aequorin, 22 to 25° C.
Description: In a quartz cell with an optical path length of 10 mm, 1 ml of 50 mM Tris-HCl (pH 7.6) containing 1 mM EDTA and 100 μl (100 μg protein) of a solution of the regenerated semi-synthetic aequorin were charged and they were mixed. Subsequently, 100 μl of 50 mM Tris-HCl (pH 7.6) containing 0.1 ml of 10 mM calcium chloride solution was added to the mixture to trigger the luminescence reaction. The spectra were measured on a spectrofluorimeter (FP-6500, manufactured by JASCO Corporation) with the excitation source turned off. The measurement conditions used were as follows: band width, 20 nm; response, 0.5 second and scan speed, 2000 nm/min at 22 to 25° C.

[3] = target: T2, 19 kDa protein of Oplophorus luciferase (Oplophorus gracilirostris, UniProt Q9GV45); test: Substrate specificity, luminescence activity and emission spectra of the 19 kDa protein of Oplophorus luciferase; format: biochemical, Oplophorus gracilorostris; settings: for Maximum emission wavelength λmax (nm) / Luminescence activity and/or capacity compared to known h-CTZ / Luminescence capacity 10 secs. (%) / Luminescence activity Imax (%): Oplophorus luciferase; for Maximum emission wavelength λmax (nm): 22 to 25° C.; for Luminescence activity and/or capacity compared to known h-CTZ / Quality as luminescence substrate for Oplophorus luciferase: TABLE 2; for Luminescence capacity 10 secs. (%): emission integrated for 10 seconds; for Luminescence capacity 10 secs. (%) / Luminescence activity Imax (%): coelenterazine = 100.0
T2 construct: made in house
T2 sequence (Q9GV45 28-196): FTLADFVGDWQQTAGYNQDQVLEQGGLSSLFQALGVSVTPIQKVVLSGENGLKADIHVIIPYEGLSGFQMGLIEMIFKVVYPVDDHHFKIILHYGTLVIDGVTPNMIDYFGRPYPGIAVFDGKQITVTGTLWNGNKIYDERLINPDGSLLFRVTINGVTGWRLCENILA

[4] = test system: Gaussia luciferase; test: Substrate specificity, luminescence activity and emission spectra of Gaussia luciferase; settings: for Luminescence activity Imax (%) / Luminescence capacity 10 secs. (%): Gaussia luciferase, coelenterazine = 100.0
Description: The luminescence activity was measured for 10 seconds using a luminometer Luminescencer-PSN AB2200 (manufactured by Atto Co., Ltd.). The luminescence activity was measured 3 times and expressed as the maximum intensity (Imax) of luminescence.

[5] = target: T1, recombinant apoaequorin; test: Calcium standard curve with semi-synthetic aequorins; format: biochemical; set-up: purchased Chisso Corporation; settings: Imax versus 10^-3 M to 10^-8 M calcium
Description: The dilution series was prepared by the serial process above to prepare standard calcium solution of 10^−3 M to 10^−8 M.
The semi-synthetic aequorin obtained was concentrated using Amicon Ultra-4 (manufactured by Millipore, molecular weight cut off, 10.000).
This semi-synthetic aequorin solution (2.5 mg/ml) was diluted with 20 mM Tris-HCl (pH 7.6) containing 0.1% BSA (manufactured by Sigma), 0.01 mM EDTA and 150 mM NaCl.
The calcium standard solution prepared as described above was dispensed into a 96-well microplate (Nunc #236108) in 50 μl/well, and the semi-synthetic aequorin solution diluted was injected in […]. The luminescence intensity was measured for 60 seconds using a luminescence plate reader Centro LB960 (manufactured by Berthold) and expressed in terms of the maximum luminescence intensity (Imax). The luminescence intensity was measured for each semi-synthetic aequorin in the same fashion. Based on the maximum luminescence intensity (Imax) obtained, the calcium standard curve for each semi-synthetic aequorin was prepared.

[6] = target: T3, Renilla luciferase (Renilla reniformis, UniProt P27652); test: Substrate specificity, luminescence activity and emission spectra of Renilla luciferase; format: biochemical; settings: for Maximum emission wavelength λmax (nm) / Luminescence activity Imax (%) / Luminescence capacity 10 secs. (%): Renilla luciferase; for Maximum emission wavelength λmax (nm): 22 to 25° C.; for Luminescence activity Imax (%) / Luminescence capacity 10 secs. (%): coelenterazine = 100.0; for Ability to act as substrate for Renilla luciferase: TABLE 4
T3 construct: made in house
T3 sequence (P27652 1-311): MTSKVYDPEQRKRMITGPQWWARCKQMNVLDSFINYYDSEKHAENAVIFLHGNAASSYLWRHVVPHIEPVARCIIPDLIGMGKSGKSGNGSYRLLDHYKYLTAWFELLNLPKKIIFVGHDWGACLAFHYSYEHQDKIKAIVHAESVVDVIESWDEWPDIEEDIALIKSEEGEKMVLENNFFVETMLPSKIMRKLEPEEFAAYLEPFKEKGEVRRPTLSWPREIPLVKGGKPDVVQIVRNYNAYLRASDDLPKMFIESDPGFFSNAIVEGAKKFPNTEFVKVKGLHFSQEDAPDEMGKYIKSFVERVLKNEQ
Source text: Res. Commun. (1997) 233: 349-353, which was provided for use.

[7] = target: T1, recombinant apoaequorin; test: Production of semi-synthetic aequorins and measurement of luminescence activity (Imax, luminescence capacity); settings: for Ability to act as luminescence substrate for semi-synthetic aequorins (FIG. 1): regeneration 0.5 to 18 hours at 4° C.; for Luminescence activity Imax (%) / Luminescence capacity 60 sec (%): semi-synthetic aequorin, coelenterazine = 100.0; for Luminescence activity Imax (%): Ca2+-triggered, maximum intensity; for Luminescence capacity 60 sec (%): emission integrated for 60 seconds
Description: In order to confirm the regeneration time and regeneration efficiency from apoaequorin to the semi-synthetic aequorin, the luminescence activity was assayed at the respective points of the regeneration process (at the respective points of 0.5, 1, 1.5, 2, 3 and 18 hours from the start of regeneration).
Specifically, the luminescence activity described above was measured as follows. The luminescence reaction was started by adding 100 μl of 50 mM Tris-HCl (pH 7.6) containing 50 mM calcium chloride solution to 2 μl of a solution of the semi-synthetic aequorin at each regeneration process. The luminescence activity was measured for 10 seconds with a luminometer Luminescencer-PSN AB2200 (manufactured by Atto Co., Ltd.). The measured values were represented as the maximum intensity (Imax) of luminescence. The emission for 60 seconds was integrated, which was made a luminescence capacity.

Compound	Half decay time sec. [1] [s]	Emission spectra of semi-synthetic aequorins compared with known analogs (FIG. 3) [2]	Maximum emission wavelength λmax (nm) [2] [nm]	Maximum emission wavelength λmax (nm) [3] [nm]	Luminescence activity and/or capacity compared to known h-CTZ [3]	Luminescence capacity 10 secs. (%) [3] [%]	Luminescence activity Imax (%) [3] [%]	Quality as luminescence substrate for Oplophorus luciferase [3]	Luminescence activity Imax (%) [4] [%]	Luminescence capacity 10 secs. (%) [4] [%]	Calcium standard curve with semi-synthetic aequorin (FIG. 4) [5]	melting point	Maximum emission wavelength λmax (nm) [6] [nm]	Luminescence activity Imax (%) [6] [%]	Luminescence capacity 10 secs. (%) [6] [%]	Ability to act as luminescence substrate for semi-synthetic aequorins (FIG. 1) [7]	Luminescence activity Imax (%) [7] [%]	Luminescence capacity 60 sec (%) [7] [%]	other results
O=c1c(Cc2cccc(O)c2)nc2c(Cc3ccccc3)[nH]c(-c3ccc(O)cc3)cn1-2 [3iso-CTZ, 3-isocoelenterazine]	0.24	exhibit different emission spectra from those of known coelenterazine analogs	464.0	458.0	high luminescence activity and/or luminescence capacity	71.8	78.2	relatively good luminescence substrates	14.3	7.4	calcium standard curves can be prepared	160 to 162 °C (dec.)	472.0	25.7	27.5	can be luminescence substrates for semi-synthetic aequorins			Quality as luminescence substrate for Gaussia luciferase ([4]; TABLE 3): effective luminescence substrates; Ability to act as substrate for Renilla luciferase [6]: can be substrates for Renilla luciferase
Cc1cccc(Cc2nc3c(Cc4ccccc4)[nH]c(-c4ccc(O)cc4)cn-3c2=O)c1 [3me-CTZ, 3me-coelenterazine]	0.51	exhibit different emission spectra from those of known coelenterazine analogs	466.0	455.5	high luminescence activity and/or luminescence capacity	122.8	80.0	relatively good luminescence substrates	2.6	2.1	calcium standard curves can be prepared	142 to 145 °C (dec.)	471.5	12.7	13.1	can be luminescence substrates for semi-synthetic aequorins			
COc1cccc(Cc2nc3c(Cc4ccccc4)[nH]c(-c4ccc(O)cc4)cn-3c2=O)c1 [3meo-CTZ, 3meo-coelenterazine]	0.52	exhibit different emission spectra from those of known coelenterazine analogs	466.0	455.5	high luminescence activity and/or luminescence capacity	204.7	189.1	relatively good luminescence substrates	3.8	3.1	calcium standard curves can be prepared	136 to 140 °C (dec.)	473.5	26.0	31.6	can be luminescence substrates for semi-synthetic aequorins			Ability to act as substrate for Renilla luciferase [6]: can be substrates for Renilla luciferase
O=c1c(Cc2ccc(C(F)(F)F)cc2)nc2c(Cc3ccccc3)[nH]c(-c3ccc(O)cc3)cn1-2 [cf3-CTZ, cf3-coelenterazine]	5.95	exhibit different emission spectra from those of known coelenterazine analogs	473.5	450.5		68.2	49.5	relatively good luminescence substrates	0.8	0.7	calcium standard curves can be prepared	157 to 161 °C (dec.)	474.5	0.8	0.8	can be luminescence substrates for semi-synthetic aequorins			Half decay time of luminescence compared with CTZ ([1]; semi-synthetic aequorin (FIG. 2, TABLE 1)): longer than CTZ
Oc1ccc(-c2cn3c(O)c(Cc4ccccc4)nc3c(Cc3ccccc3)n2)cc1 [h-CTZ, h-coelenterazine, reference compound]	0.69		465.5	456.5		110.2	68.4		5.8	7.2			472.5	78.6	90.3		87.9	70.1	
coelenterazine [CTZ, reference compound]	0.81		465.5	457.0		100.0	100.0		100.0	100.0			472.5	100.0	100.0		100.0	100.0	
et-coelenterazine [et-CTZ]	1.21	exhibit different emission spectra from those of known coelenterazine analogs	472.0	454.0		39.5	21.1	relatively good luminescence substrates	0.9	1.1	calcium standard curves can be prepared		471.0	0.5	0.3	can be luminescence substrates for semi-synthetic aequorins	27.3	44.1	
i-coelenterazine [i-CTZ, reference compound]	11.42		472.0	450.0		53.8	32.3		0.9	1.3			473.0	0.2	0.3		5.0	65.3	
n-coelenterazine [n-CTZ, reference compound]	4.71		467.0														3.6	24.0	
